Experimental data: patent publication US10322136B2, “Composition for inhibiting growth or proliferation of chronic myelogenous leukemia cancer stem cells, and screening method therefor” (HIROSHIMA UNIVERSITY, priority 2015, dated 2019)

Tests used:
BCR-ABL1+ disease = experiment: Survival and disease recurrence of BCR-ABL1 CML-affected mice; type: in vivo, mouse; conditions: oral gavage days 8 to 90 post transplantation; IM 100 mg/kg/day; cefadroxil 36 mg/kg/day; versus vehicle
Source text: BCR-ABL1 transduction/transplantation-based CML model (BCR-ABL1 CML mice) was also used. Briefly, normal KLS^+ cells (4-5×10^3 cells per recipient mouse) were transduced with the human BCR-ABL1-ires GFP retrovirus and transplanted into irradiated (9 Gy) recipient C57BL/6 mice (Sankyo-Lab Service, Tsukuba, Japan).
Treatment was delivered by oral gavage on days 8 to 90 post transplantation. To examine the effect of single administration of Ly2228820, BCR-ABL1-CML-affected mice received vehicle, or Ly2228820 (2.5 mg kg^−1 every three days; Axon Medchem) in vehicle, by oral gavage on days 8 to 60 days post transplantation.

[1] = system: Foxo3a-/- LT-CML cancer stem cells; experiment: Colony-forming capacity of Foxo3a-/- LT-CML cancer stem cells; type: cell-based, mouse; conditions: cefadroxil treatment in vitro
Method: To establish our Foxo3a-deficient tet-inducible CML mouse model, Foxo3a-deficient mice 42 (C57BL/6; F5) were crossed with Tal-tTA and TRE-BCR-ABL1 transgenic mice that were backcrossed for five generations in the C57BL/6 background, respectively. LT-CML stem cells or LT-normal HSCs (1×10^3/plate) were co-cultured on OP-9 stromal cells for 5 days in the presence of either vehicle (control) or a dipeptide transporter inhibitor cefadroxil (5 μM). Cells were harvested, washed with PBS, and plated in semi-solid methylcellulose medium containing SCF, IL-3, IL-6 and erythropoietin (Methocult GF M3434; Stem Cell Technologies). After growth for 7 days in a humidified atmosphere containing 5% CO2 at 37° C., colony numbers were counted under a light microscope.

normal HSCs [2] = experiment: Colony-forming assay, LT-normal HSCs on OP-9 stromal cells; type: cell-based, mouse; conditions: 5 μM, 5 days, hypoxic (3% O2)
Method: LT-CML stem cells or LT-normal HSCs (1×10^3/plate) were co-cultured on OP-9 stromal cells for 5 days in the presence of either vehicle (control) or a dipeptide transporter inhibitor cefadroxil (5 μM). Cells were harvested, washed with PBS, and plated in semi-solid methylcellulose medium containing SCF, IL-3, IL-6 and erythropoietin (Methocult GF M3434; Stem Cell Technologies). After growth for 7 days in a humidified atmosphere containing 5% CO2 at 37° C., colony numbers were counted under a light microscope.

Smad3 Ser208 = experiment: Duolink in situ PLA, Smad3 Ser208 phosphorylation in LT-CML cancer stem cells; type: cell-based, mouse; conditions: 30 min; GlySar or cefadroxil 5 μM; rapamycin 100 nM
Method: (§1) To examine phosphorylation of Smad2, Smad3, p38MAPK, AMPK, and S6 ribosomal protein, and Foxo3a-Smad2 and Foxo3a-Smad3 interactions, Duolink® in situ PLA assay (Olink Bioscience) was used. LT-CML stem cells, ST-CML stem cells, CD48^+, MPP, and KLS^− CML cells that were freshly isolated from CML-affected mice, and LT-normal HSCs that were freshly isolated from healthy control littermates, were immediately fixed with 4% paraformaldehyde for 30 min.
(§2) For in vitro inhibitor experiments, LT-CML stem cells were incubated in 3% O2 at 37° C. for 30 min with vehicle (control; artificial gastric fluid solution (900 ml ddH2O containing 2.0 g of NaCl, 7 ml of conc. HCl and 3.2 g of pepsin)), 5 μM Ly364947 (TGF-β type I receptor kinase Alk5 inhibitor; Merck), 5 μM SB203580 (p38MAPK inhibitor; LC Laboratories), 5 μM GlySar (dipeptide transporter inhibitor; Sigma-Aldrich), 5 μM cefadroxil (dipeptide transporter inhibitor; Sigma-Aldrich), or 100 nM rapamycin (mTORC1 inhibitor; Cell Signaling Technologies). Treated cells were fixed with 4% paraformaldehyde for 30 min, and treated with 0.25% Triton X-100 for 15 min, washed and blocked by incubation in 5% FBS in TBS for 1 hr.
(§3) The proximate binding of these antibodies was then detected using Duolink® in situ PLA system which employs a set of two secondary antibodies in which one is conjugated to a minus strand PLA probe and the other is conjugated to a plus strand PLA probe. Nuclei were stained with DNA marker DAPI (Sigma). Stained slides were mounted using Fluoromount Plus (Diagnostic Biosystems) and fluorescent images were acquired by confocal microscopy (FV10i, Olympus) and Photoshop software (Adobe). The number of fluorescent foci per single cell was quantified using Duolink®Image Tool software (Olink Bioscience).

Raptor-Ser863 = experiment: Duolink in situ PLA, Raptor-Ser863 phosphorylation in LT-CML cancer stem cells; type: cell-based, mouse; conditions: 30 min; GlySar or cefadroxil 5 μM; rapamycin 100 nM
Method: as §1
(§4) For in vitro inhibitor experiments, LT-CML stem cells were incubated in 3% O2 at 37° C. for 30 min with vehicle (control; artificial gastric fluid solution (900 ml ddH2O containing 2.0 g of NaCl, 7 ml of conc. HCl and 3.2 g of pepsin)), 5 μM Ly364947 (TGF-β type I receptor kinase Alk5 inhibitor; Merck), 5 μM SB203580 (p38MAPK inhibitor; LC Laboratories), 5 μM GlySar (dipeptide transporter inhibitor; Sigma-Aldrich), 5 μM cefadroxil (dipeptide transporter inhibitor; Sigma-Aldrich), or 100 nM rapamycin (mTORC1 inhibitor; Cell Signaling Technologies). […]
(§5) The proximate binding of these antibodies was then detected using Duolink® in situ PLA system which employs a set of two secondary antibodies in which one is conjugated to a minus strand PLA probe and the other is conjugated to a plus strand PLA probe. […] The number of fluorescent foci per single cell was quantified using Duolink®Image Tool software (Olink Bioscience).

CML-KLS+ cells [3] = experiment: Serial transplantation of CML stem cells; type: in vivo, mouse
Method: To evaluate the retention of the disease-initiating capacity by CML stem cells after treatment of mice with cefadroxil […] and/or IM in vivo, the number of GFP/BCR-ABL1+CMLKLS^+ cells in treated BCR-ABL1 CML-affected mice was determined, and subsequent secondary transplantation of the cells was performed. Briefly, CML-affected mice received by oral gavage for 30 days post BM transplantation as described above. The number of GFP/BCR-ABL1+CML-KLS+ cells among total GFP/BCR-ABL1+CML cells isolated from BM MNCs acquired from the two hindlimbs of treated CML-affected mice was assessed by flow cytometry. Freshly purified GFP/BCR-ABL1^+CML-KLS^+ cells (3×10^4) were then serially transplanted into a second set of lethally irradiated congenic recipient mice along with 5×10^5 normal BM MNCs derived from C57BL/6 mice. Mouse survival and disease recurrence were monitored for 90 days.

S6 ribosomal protein = experiment: Duolink in situ PLA, S6 ribosomal protein phosphorylation in LT-CML cancer stem cells; type: cell-based, mouse; conditions: 30 min; GlySar or cefadroxil 5 μM; rapamycin 100 nM
Method: as §1, §4, §5

Raptor-Ser792 = Raptor-Ser792 phosphorylation in LT-CML cancer stem cells; type: cell-based, mouse; conditions: LT-CML cancer stem cells in vitro
CML-KLS+ cells [4] = experiment: Number of GFP/BCR-ABL1+ CML-KLS+ cells in BM of treated CML-affected mice; type: in vivo, mouse; conditions: daily for 30 days post transplantation
Method: Briefly, CML-affected mice received by oral gavage for 30 days post BM transplantation as described above. The number of GFP/BCR-ABL1+CML-KLS+ cells among total GFP/BCR-ABL1+CML cells isolated from BM MNCs acquired from the two hindlimbs of treated CML-affected mice was assessed by flow cytometry. Freshly purified GFP/BCR-ABL1^+CML-KLS^+ cells (3×10^4) were then serially transplanted into a second set of lethally irradiated congenic recipient mice along with 5×10^5 normal BM MNCs derived from C57BL/6 mice. Mouse survival and disease recurrence were monitored for 90 days.

AMPK = experiment: Duolink in situ PLA, AMPK phosphorylation in LT-CML cancer stem cells; type: cell-based, mouse; conditions: LT-CML cancer stem cells in vitro
Method: as §1, §2, §3

normal HSCs [5] = conditions: mouse, in vivo
Source text: C57BL/6 (CD45.2 for the Ly5 locus) and congenic C57BL/6 (CD45.1 for the Ly5 locus; B6-Ly5.1) mice were purchased from Sankyo-Lab Service (Tsukuba, Japan). Lethally irradiated (9 Gy) C57BL/6 (CD45.2) recipient mice were reconstituted with 1×10^4 normal KLS^+ cells (HSCs) from congenic C57BL/6 (CD45.1) (B6-Ly5.1) mice in competition with 5×10^5 unfractionated BM MNCs derived from C57BL/6 (CD45.2) mice. Transplanted recipients then received vehicle or cefadroxil (36 mgKg^−1day^−1) from day 0 to 8 weeks post transplantation. Reconstitution of donor-derived cells (CD45.1) was monitored at 4 and 8 weeks post transplantation by flow cytometric analysis of peripheral blood mononuclear cells stained with monoclonal antibodies (mAbs) against CD45.2 (104)-FITC and CD45.1 (A20)-PE.

CC1=C(C(=O)O)N2C(=O)[C@@H](NC(=O)[C@H](N)c3ccc(O)cc3)[C@H]2SC1 [cefadroxil]
BCR-ABL1+ disease onset / development (BCR-ABL1+ disease): appeared to promote disease development | number of colonies formed by Foxo3a-/- LT-CML cancer stem cells [1]: not altered | colony-forming capacity of normal HSCs (normal HSCs [2]): maintained normal levels | Smad3 Ser208 phosphorylation (Smad3 Ser208): blocked | phosphorylation of Raptor-Ser863 (Raptor-Ser863): decreased phosphorylation | ability of CML-KLS+ cells from treated mice to drive BCR-ABL1+ disease in new recipients (CML-KLS+ cells [3]; 3x10^4 cells per recipient, donors treated with cefadroxil): completely lost their ability | survival of new recipient mice (CML-KLS+ cells [3]; recipients of CML-KLS+ cells from cefadroxil-treated mice): over 90 days | phosphorylation of S6 (S6 ribosomal protein): decreased phosphorylation | Raptor-Ser792 phosphorylation (Raptor-Ser792): did not promote | number of CML-KLS+ cells among GFP/BCR-ABL1+ CML cells from BM (CML-KLS+ cells [4]): significantly decreased | phosphorylation of AMPK (AMPK): increased | frequency of donor-derived CD45.1 MNCs in peripheral blood (normal HSCs [5]): no increase
